Columns and labels:
αvβ8 = αvβ8 (Homo sapiens (Human), UniProt P06756+P26012); experiment: αVβ8-LAP-TGF β1 integrin binding assay (integrin coupled beads, flow cytometry); details: for IC50: ligand LAP-TGF β1 20 nM, integrin 10 nM
Experimental: (§1) αVβ6/αVβ8-LAP-TGF β1 Binding Assay
(§2) Integrins αVβ6/αVβ8 coupled beads are treated with an αVβ6/αVβ8 ligand (e.g., LAP TGF-β1 (LAP1)), and the complex is incubated with a primary antibody (Ab), which can be labeled for detection (e.g., fluorescently labeled), and optionally with a secondary antibody, which can be labeled for detection (e.g., fluorescently labeled). Reaction between integrin coupled beads and the ligand was considered as the full reaction, and reaction without the ligand or a compound of the disclosure was considered as the blank reaction. The complex is analyzed, e.g., by either plate reader or Flow Cytometer, to determine modulation of binding between αVβ6/αVβ8 and the ligand (e.g., LAP-TGF β1) by the compounds of the present application.
All αv Integrins are known to bind to proteins with a RGD motif. Two RGD ligands were used in this study: Vitronectin (VN) as a ligand for αvβ3 and αvβ5 (Wayner et al., J. Cell Biol., 113 (4), 919-929, 1991), and LAP TGF-β1 (LAP1) as a ligand for αvβ6 and αvβ8 (Rognoni et al., Nat. Med., 20(4): 350-359, 2014). CWHM12 was used as a positive control for αvβ6 and αvβ8 (Henderson et al., Nat. Med. 19(12), 10.1038/nm.3282 2013), and Cilengitide as a positive control for αvβ3 and αvβ5 (Kumar et al., J. Pharmacol. Exp. Ther., 283, 843-853, 1997).
The integrin coupled Dyna beads were allowed to interact with respective ligands. The integrin-ligand complex was detected with either Primary/Secondary Antibody conjugated with Fluorescein Isothiocyanate (FITC). For αvβ3 and αvβ5, Vitronectin was used as a ligand and a primary antibody conjugated with FITC (Anti-VN-FITC Ab) was used to detect the interaction. For αvβ6 and αvβ8, LAP-TGF β1 was used as ligand and a primary antibody against LAP1 (Anti-LAP1 Ab) and a secondary antibody conjugated with FITC were used to detect the αv β6/αvβ8-LAP-TGF β1 complex. Fluorescence was measured by Flow Cytometry analysis.
5 mg of Dyna beads were weighed in a low protein binding microfuge (Eppendorf) tube (1.5 mL volume). The beads were re-suspended in 1 mL of Sodium Phosphate Buffer and vortexed at high speed for 30 seconds. The tube was then placed in a tube roller and tilt rotated for 10 min. After tilt rotation, the tube was placed on the Magna Spin and the beads were allowed to settle. The supernatant was discarded and the beads were washed three times. The beads were then re-suspended in 100 μL of Sodium Phosphate Buffer and 20 μL of washed beads were distributed into 5 low protein binding Eppendorf tubes (1 mg of beads in each tube). The beads were used for coupling integrins. […]
(§3) The tubes were taken out and subjected to a quick spin. […] The amount of protein bound to beads was quantified by measuring the sum of protein left in the Supernatant, W1, W2, W3 and W4 through the Micro BCA method. […]

αvβ6 = αvβ6 (Homo sapiens (Human), UniProt P06756+P18564); experiment: αVβ6-LAP-TGF β1 integrin binding assay (integrin coupled beads, flow cytometry); details: ligand LAP-TGF β1 10 nM; integrin 10 nM
Sequence of αvβ6 (P06756 31-992): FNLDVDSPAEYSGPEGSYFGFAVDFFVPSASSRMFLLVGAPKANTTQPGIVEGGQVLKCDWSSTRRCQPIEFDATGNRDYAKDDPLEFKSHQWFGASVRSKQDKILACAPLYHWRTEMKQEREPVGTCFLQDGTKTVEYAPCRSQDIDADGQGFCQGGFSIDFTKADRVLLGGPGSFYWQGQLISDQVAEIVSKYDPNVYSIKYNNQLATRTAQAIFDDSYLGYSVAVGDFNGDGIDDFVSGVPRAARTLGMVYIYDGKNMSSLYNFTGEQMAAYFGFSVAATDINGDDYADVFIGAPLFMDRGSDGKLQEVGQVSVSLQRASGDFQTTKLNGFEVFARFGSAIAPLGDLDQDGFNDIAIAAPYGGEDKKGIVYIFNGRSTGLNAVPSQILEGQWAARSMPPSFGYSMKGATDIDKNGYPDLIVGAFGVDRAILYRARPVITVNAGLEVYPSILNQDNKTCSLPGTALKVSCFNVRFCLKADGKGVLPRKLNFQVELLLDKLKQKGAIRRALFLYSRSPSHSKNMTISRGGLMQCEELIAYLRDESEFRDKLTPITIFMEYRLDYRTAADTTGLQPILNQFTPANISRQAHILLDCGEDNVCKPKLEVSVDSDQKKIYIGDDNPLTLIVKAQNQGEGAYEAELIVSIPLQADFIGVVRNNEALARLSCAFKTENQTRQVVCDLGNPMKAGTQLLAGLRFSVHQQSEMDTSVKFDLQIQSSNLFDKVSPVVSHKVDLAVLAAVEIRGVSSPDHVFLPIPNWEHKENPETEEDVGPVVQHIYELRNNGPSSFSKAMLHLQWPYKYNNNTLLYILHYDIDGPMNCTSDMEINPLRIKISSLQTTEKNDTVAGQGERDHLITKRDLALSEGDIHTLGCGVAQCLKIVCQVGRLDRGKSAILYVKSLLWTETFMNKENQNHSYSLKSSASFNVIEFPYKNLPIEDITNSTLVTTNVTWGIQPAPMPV
Sequence of αvβ6 (P18564 22-707): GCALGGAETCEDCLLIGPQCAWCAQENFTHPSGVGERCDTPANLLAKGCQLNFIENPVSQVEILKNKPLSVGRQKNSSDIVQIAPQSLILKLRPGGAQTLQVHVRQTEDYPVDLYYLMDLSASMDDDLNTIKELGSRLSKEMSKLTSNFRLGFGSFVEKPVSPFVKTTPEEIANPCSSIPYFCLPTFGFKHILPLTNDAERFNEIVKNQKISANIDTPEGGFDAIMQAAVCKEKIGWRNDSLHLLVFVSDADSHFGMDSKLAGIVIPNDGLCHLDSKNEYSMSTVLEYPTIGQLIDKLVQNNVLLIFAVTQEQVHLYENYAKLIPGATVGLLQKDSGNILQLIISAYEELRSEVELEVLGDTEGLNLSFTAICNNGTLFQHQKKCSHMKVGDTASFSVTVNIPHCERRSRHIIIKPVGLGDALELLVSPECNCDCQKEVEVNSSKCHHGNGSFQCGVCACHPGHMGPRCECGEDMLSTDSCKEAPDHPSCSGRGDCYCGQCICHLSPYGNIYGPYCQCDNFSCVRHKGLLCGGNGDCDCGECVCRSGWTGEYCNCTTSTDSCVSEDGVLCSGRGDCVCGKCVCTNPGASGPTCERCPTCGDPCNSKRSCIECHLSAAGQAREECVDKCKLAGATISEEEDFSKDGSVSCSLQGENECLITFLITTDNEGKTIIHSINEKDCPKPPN
Experimental: as §1, §2
All αv Integrins are known to bind to proteins with a RGD motif. […]
The integrin coupled Dyna beads were allowed to interact with respective ligands. The integrin-ligand complex was detected with either Primary/Secondary Antibody conjugated with Fluorescein Isothiocyanate (FITC). […] Fluorescence was measured by Flow Cytometry analysis. […]
as §3

Sequence of αvβ8 (P06756 31-992): as the sequence (P06756 31-992) above
Sequence of αvβ8 (P26012 43-684): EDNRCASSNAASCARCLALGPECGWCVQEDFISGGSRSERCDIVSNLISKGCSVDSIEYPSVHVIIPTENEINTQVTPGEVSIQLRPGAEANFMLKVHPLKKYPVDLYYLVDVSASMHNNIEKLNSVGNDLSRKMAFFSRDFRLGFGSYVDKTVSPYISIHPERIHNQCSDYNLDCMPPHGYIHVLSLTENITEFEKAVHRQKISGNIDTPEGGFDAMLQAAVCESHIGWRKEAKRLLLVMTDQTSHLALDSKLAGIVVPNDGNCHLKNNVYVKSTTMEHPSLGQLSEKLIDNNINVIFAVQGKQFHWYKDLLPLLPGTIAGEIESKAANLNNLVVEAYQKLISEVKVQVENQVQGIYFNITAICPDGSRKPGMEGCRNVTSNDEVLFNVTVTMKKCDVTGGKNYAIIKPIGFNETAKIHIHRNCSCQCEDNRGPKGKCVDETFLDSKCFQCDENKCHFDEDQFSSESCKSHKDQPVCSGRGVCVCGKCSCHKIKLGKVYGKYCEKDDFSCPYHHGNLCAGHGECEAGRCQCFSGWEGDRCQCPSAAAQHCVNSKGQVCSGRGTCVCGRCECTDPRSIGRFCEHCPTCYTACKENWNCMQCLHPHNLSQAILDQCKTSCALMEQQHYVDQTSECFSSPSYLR

Row | Compound | IC50 (αvβ8) | αvβ8/αvβ6 (αvβ8; ratio of αvβ8 IC50 to αvβ6 IC50) | IC50 (αvβ6)
1 | O=C(O)CC(c1cccc(C(F)(F)F)c1)N1CCN(CCCCNc2nc3ccccc3[nH]2)C1=O (stereo not drawn) [Compound A1, 3-(3-(4-((1H-benzo[d]imidazol-2-yl)amino)butyl)-2-oxoimidazolidin-1-yl)-3-(3-(trifluoromethyl)phenyl)propanoic acid] | 50.4 nM | 0.13 | 376 nM
2 | O=C(O)CC(c1cccc(C(F)(F)F)c1)N1CCN(CCCCNC2=NCc3ccccc3C2)C1=O (stereo not drawn) [Compound A8] | 622 nM | – | –
3 | O=C(O)CC(c1cccc(C(F)(F)F)c1)N1CCN(CCCCNc2ccccn2)C1=O (stereo not drawn) [Compound A10] | 232 nM | – | 394 nM
